Experimental data reported in US4851436A, “HMG-CoA reductase inhibitors” (Merck & Co., Inc., priority 1987, dated 1989).

Key:
[1] = system: HMG-CoA reductase; assay: In vitro determination of HMG-CoA reductase inhibitory activity; assay type: biochemical, rat; settings: for Relative Potency: Relative to compactin arbitrarily assigned a value of 100; for IC50: purified rat liver microsomal HMG-CoA reductase, 37° C., 40 minutes, pH 7.2
Protocol: The intrinsic HMG-CoA reductase inhibition activity of the claimed compounds is measured in the in vitro protocol described below:
The In Vitro Determination of HMG-CoA Reductase Activity in Liver and the In Vitro Testing of Inhibitors
The procedure to measure in vitro HMG-CoA reductase activity in rat liver involves two steps and is based upon the procedure of Alberts et al:^1
1. Preparation of liver microsomal pellets.
2. Assay of the pellet for HMG-CoA reductase activity.
Reference: 1. Alberts, et al., Proceedings of the National Academy of Science, Vol. 77, pp. 3957-61 (1980).
Microsomes are prepared from livers of 150-200 g male rats (Charles River) maintained for a week on ground chow containing 2.0% cholestyramine, a bile acid sequestrant. The rats are sacrificed by cervical dislocation, and the livers removed immediately and chilled on ice. All subsequent operation are carried out at 0°-5° C.
Buffer I (for homogenization)
Procedure: all operation at 4° C.
Purification of HMG-CoA Reductase from Microsomal Pellet
Procedure: all operations are carried out at room temperature
The complete assay system is in a total volume of 0.8 ml in phosphate buffer at pH 7.2 (100 mM) with the cofactors at the following concentrations: MgCl2 3 mM; NADP, 3 mM; glucose-6-phosphate, 10 mM; glucose-6-phosphate dehydrogenase (ED 1.1.1.49) 3.0 enzyme units; reduced glutathione, 50 mM; HMG-CoA (Glutaryl-3-^14 C) 0.2 mM (0.1 μCi) and enzyme suspension, 0.1 ml.
The frozen pellet (enzyme) is allowed to thaw at room temperature for 5 minutes and carefully mixed with a stirring rod to a slurry with 0.1 ml of phosphate buffer (pH 7.2) and then diluted to 2.0 ml with the buffer. A volume (0.1 ml) of enzyme suspension is added to each incubation tube. Compounds to be tested are diluted to an appropriate concentration and added in a volume to 10 μ before adding the enzyme. An "untreated-control" is run along with the compounds.
The complete system is placed in 16×125 mm screw-cap culture tubes and shaken uncapped in a 37° C. water bath for 40 minutes at 160 oscillations per minute. At the end of this period the reaction is stopped by the addition of 0.4 ml of 8N HCl. 3 Mg of unlabeled mevalonolactone in 0.1 ml H2 O is added and the tubes shaken as before for an additional 30 minutes at 37° C. to ensure lactonization of the biosynthetic mevalonate.
200 μl of reaction mixture are applied to Bio-Rex 5 column (5 cm in a Pasteur pipette). Elute three times with one ml each of water into a scintillation vial. Add 10 ml of Aquasol-2, shake and count.
Bio-Rex is an ion-exchange resin, obtained from Bio-Rad. It comes dry in the chloride form and only the 100-200 mesh should be used. It is swelled in water for several hours; any fine particles should be decanted off as these will impair the flow rate. The hydrated resin should be stored at 4° C.
Each assay includes 2 untreated controls plus a "killed control" (reaction is stopped immediately before incubation by addition of 0.4 ml of 8N HCl).
After subtracting killed control CPM from all samples, percent inhibition by the test compounds is calculated as follows: [formula]

[2] = Stability of the free hydroxy acid on standing; assay type: physicochemical
Protocol: The sodium salt of the compound II from Example 17 is redissolved in 2 ml of ethanol-water (1:1) and added to 10 ml of 1N hydrochloric acid from which the hydroxy acid is extracted with ethyl acetate. The latter solvent is washed once with water, dried, and removed in vacuo with a bath temperature not exceeding 30° C.

SMILES	Relative Potency [1]	IC50 [1] [nM]	reversion of hydroxy acid to lactone [2]
CC(CCO)C(=O)O[C@H]1C[C@@H](C)C=C2C=C[C@H](C)[C@H](CC[C@@H](O)C[C@@H](O)CC(=O)O)[C@H]21 (stereo partly drawn) [n=2, R=H, R1=H, R2=CH3, R3=H]	30	40	–
C[C@H]1C=C2C=C[C@H](C)[C@H](CC[C@@H](O)C[C@@H](O)CC(=O)O)[C@H]2[C@@H](OC(=O)C(C)(C)CO)C1 [n=1, R=H, R1=CH3, R2=CH3, R3=H]	80	20	–
CC1C=C2C=CC(C)C(CCC(O)CC(O)CC(=O)O)C2C(OC(=O)C(C)(C)CCO)C1 [n=2, R=H, R1=CH3, R2=CH3, R3=H, 7-[1,2,6,7,8,8a(R)-Hexahydro-2(S),6(R)-dimethyl-8(S)-(2,2-dimethyl-4-hydroxybutyryloxy)naphthalenyl-1(S)]-3(R),5(R)-dihydroxyheptanoic acid]	64	15.6	slowly reverts to the lactone on standing
C[C@H]1C=C2C=C[C@H](C)[C@H](CC[C@@H](O)C[C@@H](O)CC(=O)O)[C@H]2[C@@H](OC(=O)C(C)(C)CCCO)C1 [n=3, R=H, R1=CH3, R2=CH3, R3=H]	63	30	–
